Data from US8952024B2, “Herbicidal pyrimidone derivatives” (E I du Pont de Nemours and Company, priority 2009, dated 2015).

Key:
Assay type in all cases: in vivo
[1] = system: corn (Zea mays); assay: Test A pre-/postemergence plant response
How it was run: (§1)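 Pre: directed soil spray on seeded loam/sand blend. Post: same formulation (non-phytotoxic solvent + surfactant) on 2–10 cm plants, 1–2 leaf stage. Greenhouse ~10 d; visual injury score 0–100 vs untreated.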

[2] = system: velvetleaf (Abutilon theophrasti); assay: Test A pre-/postemergence plant response
How it was run: as §1

[3] = system: giant foxtail (Setaria faberii); assay: Test A pre-/postemergence plant response
How it was run: as §1

[4] = system: pigweed (Amaranthus retroflexus); assay: Test A pre-/postemergence plant response
How it was run: as §1

[5] = system: large crabgrass (Digitaria sanguinalis); assay: Test A pre-/postemergence plant response
How it was run: as §1

[6] = system: morningglory (Ipomoea spp.); assay: Test A pre-/postemergence plant response
How it was run: as §1

[7] = system: barnyardgrass (Echinochloa crus-galli); assay: Test A pre-/postemergence plant response
How it was run: as §1

[8] = system: wheat (Triticum aestivum); assay: Test A pre-/postemergence plant response
How it was run: as §1

[9] = system: canarygrass (Phalaris minor); assay: Test B postemergence plant response; conditions: for Canarygrass plant response rating (0 to 100 scale): 62 g ai/ha, postemergence, 0 is no effect, 100 is complete control; for Plant response rating, Canarygrass: Postemergence
How it was run: (§2)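 Visual ratings from 0 (no effect) to 100 (complete control), made against controls 13–15 days after treatment, kept in a greenhouse. Compounds were applied postemergence to potted plants at the 1- to 4-leaf stage (2–18 cm).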

[10] = system: windgrass (Apera spica-venti); assay: Test B postemergence plant response; conditions: for Windgrass plant response rating (0 to 100 scale): 62 g ai/ha, postemergence, 0 is no effect, 100 is complete control; for Plant response rating, Windgrass: Postemergence
How it was run: as §2

[11] = system: chickweed (Stellaria media); assay: Test B postemergence plant response; conditions: for Chickweed plant response rating (0 to 100 scale): 62 g ai/ha, postemergence, 0 is no effect, 100 is complete control; for Plant response rating, Chickweed: Postemergence
How it was run: as §2

[12] = system: winter barley (Hordeum vulgare); assay: Test B postemergence plant response; conditions: for Barley plant response rating (0 to 100 scale): 62 g ai/ha, postemergence, 0 is no effect, 100 is complete control; for Plant response rating, Barley: Postemergence
How it was run: as §2

[13] = Postemergence, 125 g ai/ha, 0 to 100 scale where 0 is no effect and 100 is complete control
[14] = Postemergence, 500 g ai/ha, 0 to 100 scale, 0 = no effect, 100 = complete control, approx. ten days
[15] = Preemergence, 125 g ai/ha, 0 to 100 scale, 0 = no effect, 100 = complete control
[16] = Preemergence, 500 g ai/ha, visual injury, 0 to 100 scale (0 no effect, 100 complete control), approx. ten days
[17] = Preemergence, 500 g ai/ha, 0 to 100 scale, 0 = no effect, 100 = complete control
[18] = 31 g ai/ha, 0 to 100 scale (0 no effect, 100 complete control)
[19] = 125 g ai/ha, scale 0 to 100 (0 no effect, 100 complete control)
[20] = 250 g ai/ha, scale 0 to 100 (0 no effect, 100 complete control), 13 to 15 days

Compound: CCCCn1c(-c2cccc(Cl)c2)ncc(C(=O)C2=C(O)CCCC2=O)c1=O [Compound 146]
- Plant response rating, Corn [1, 13]: 20
- Plant response rating, Corn [1, 14]: 30
- Plant response rating, Corn [1, 15]: 0
- Plant response rating, Corn [1, 16]: 30
- Plant response rating, Velvetleaf [2, 13]: 100
- Plant response rating, Velvetleaf [2, 14]: 100
- Plant response rating, Velvetleaf [2, 15]: 70
- Plant response rating, Velvetleaf [2, 17]: 100
- Plant response rating, Foxtail, Giant [3, 13]: 70
- Plant response rating, Foxtail, Giant [3, 14]: 90
- Plant response rating, Foxtail, Giant [3, 15]: 30
- Plant response rating, Foxtail, Giant [3, 16]: 90
- Plant response rating, Pigweed [4, 13]: 100
- Plant response rating, Pigweed [4, 14]: 100
- Plant response rating, Pigweed [4, 15]: 70
- Plant response rating, Pigweed [4, 16]: 100
- Plant response rating, Crabgrass, Large [5, 13]: 80
- Plant response rating, Crabgrass, Large [5, 14]: 90
- Plant response rating, Crabgrass, Large [5, 15]: 60
- Plant response rating, Crabgrass, Large [5, 16]: 100
- Plant response rating, Morningglory [6, 13]: 90
- Plant response rating, Morningglory [6, 14]: 90
- Plant response rating, Morningglory [6, 15]: 10
- Plant response rating, Barnyardgrass [7, 13]: 100
- Plant response rating, Barnyardgrass [7, 14]: 100
- Plant response rating, Barnyardgrass [7, 15]: 60
- Plant response rating, Barnyardgrass [7, 16]: 100
- Plant response rating, Wheat [8, 13]: 20
- Plant response rating, Wheat [8, 14]: 50
- Plant response rating, Wheat [8, 15]: 0
- Plant response rating, Wheat [8, 17]: 40
- Canarygrass plant response rating (0 to 100 scale) ([9]; 13 to 15 days): 0
- Plant response rating, Canarygrass [9, 18]: 0
- Plant response rating, Canarygrass [9, 19]: 5
- Plant response rating, Canarygrass [9, 20]: 10
- Windgrass plant response rating (0 to 100 scale) ([10]; 13 to 15 days): 50
- Plant response rating, Windgrass [10, 18]: 45
- Plant response rating, Windgrass [10, 19]: 60
- Plant response rating, Windgrass [10, 20]: 60
- Chickweed plant response rating (0 to 100 scale) ([11]; 13 to 15 days): 95
- Plant response rating, Chickweed [11, 18]: 70
- Plant response rating, Chickweed [11, 19]: 98
- Plant response rating, Chickweed [11, 20]: 98
- Barley plant response rating (0 to 100 scale) ([12]; 13 to 15 days): 0
- Plant response rating, Barley [12, 18]: 0
- Plant response rating, Barley [12, 19]: 15
- Plant response rating, Barley [12, 20]: 30

Compound: COCCn1c(-c2cccc(Cl)c2)ncc(C(=O)C2=C(O)CCCC2=O)c1=O [Compound 147]
- Plant response rating, Corn [1, 13]: 20
- Plant response rating, Corn [1, 14]: 30
- Plant response rating, Corn [1, 15]: 0
- Plant response rating, Corn [1, 16]: 0
- Plant response rating, Velvetleaf [2, 13]: 100
- Plant response rating, Velvetleaf [2, 14]: 100
- Plant response rating, Velvetleaf [2, 15]: 80
- Plant response rating, Velvetleaf [2, 17]: 100
- Plant response rating, Foxtail, Giant [3, 13]: 70
- Plant response rating, Foxtail, Giant [3, 14]: 80
- Plant response rating, Foxtail, Giant [3, 15]: 70
- Plant response rating, Foxtail, Giant [3, 16]: 90
- Plant response rating, Pigweed [4, 13]: 100
- Plant response rating, Pigweed [4, 14]: 100
- Plant response rating, Pigweed [4, 15]: 90
- Plant response rating, Pigweed [4, 16]: 100
- Plant response rating, Crabgrass, Large [5, 13]: 80
- Plant response rating, Crabgrass, Large [5, 14]: 90
- Plant response rating, Crabgrass, Large [5, 15]: 100
- Plant response rating, Crabgrass, Large [5, 16]: 100
- Plant response rating, Morningglory [6, 13]: 100
- Plant response rating, Morningglory [6, 14]: 100
- Plant response rating, Morningglory [6, 15]: 40
- Plant response rating, Morningglory [6, 16]: 90
- Plant response rating, Barnyardgrass [7, 13]: 80
- Plant response rating, Barnyardgrass [7, 14]: 90
- Plant response rating, Barnyardgrass [7, 15]: 70
- Plant response rating, Barnyardgrass [7, 16]: 100
- Plant response rating, Wheat [8, 13]: 20
- Plant response rating, Wheat [8, 14]: 60
- Plant response rating, Wheat [8, 15]: 0
- Plant response rating, Wheat [8, 17]: 20
- Canarygrass plant response rating (0 to 100 scale) ([9]; 13 to 15 days): 0
- Plant response rating, Canarygrass [9, 18]: 0
- Plant response rating, Canarygrass [9, 19]: 5
- Plant response rating, Canarygrass [9, 20]: 5
- Windgrass plant response rating (0 to 100 scale) ([10]; 13 to 15 days): 50
- Plant response rating, Windgrass [10, 18]: 10
- Plant response rating, Windgrass [10, 19]: 55
- Plant response rating, Windgrass [10, 20]: 70
- Chickweed plant response rating (0 to 100 scale) ([11]; 13 to 15 days): 90
- Plant response rating, Chickweed [11, 18]: 70
- Plant response rating, Chickweed [11, 19]: 98
- Plant response rating, Chickweed [11, 20]: 98
- Barley plant response rating (0 to 100 scale) ([12]; 13 to 15 days): 0
- Plant response rating, Barley [12, 18]: 0
- Plant response rating, Barley [12, 19]: 0
- Plant response rating, Barley [12, 20]: 0

Compound: CCCn1c(-c2cc(F)cc(F)c2)ncc(C(=O)C2=C(O)CCCC2=O)c1=O [Compound 152]
- Plant response rating, Corn [1, 13]: 0
- Plant response rating, Corn [1, 14]: 50
- Plant response rating, Corn [1, 15]: 0
- Plant response rating, Corn [1, 16]: 30
- Plant response rating, Velvetleaf [2, 13]: 100
- Plant response rating, Velvetleaf [2, 14]: 100
- Plant response rating, Velvetleaf [2, 15]: 60
- Plant response rating, Velvetleaf [2, 17]: 100
- Plant response rating, Foxtail, Giant [3, 13]: 80
- Plant response rating, Foxtail, Giant [3, 14]: 100
- Plant response rating, Foxtail, Giant [3, 15]: 60
- Plant response rating, Foxtail, Giant [3, 16]: 90
- Plant response rating, Pigweed [4, 13]: 100
- Plant response rating, Pigweed [4, 14]: 100
- Plant response rating, Pigweed [4, 15]: 100
- Plant response rating, Pigweed [4, 16]: 100
- Plant response rating, Crabgrass, Large [5, 13]: 90
- Plant response rating, Crabgrass, Large [5, 14]: 100
- Plant response rating, Crabgrass, Large [5, 15]: 90
- Plant response rating, Crabgrass, Large [5, 16]: 100
- Plant response rating, Morningglory [6, 13]: 100
- Plant response rating, Morningglory [6, 14]: 100
- Plant response rating, Morningglory [6, 15]: 60
- Plant response rating, Morningglory [6, 16]: 80
- Plant response rating, Barnyardgrass [7, 13]: 100
- Plant response rating, Barnyardgrass [7, 14]: 100
- Plant response rating, Barnyardgrass [7, 15]: 50
- Plant response rating, Barnyardgrass [7, 16]: 100
- Plant response rating, Wheat [8, 13]: 20
- Plant response rating, Wheat [8, 14]: 70
- Plant response rating, Wheat [8, 15]: 20
- Plant response rating, Wheat [8, 17]: 50
- Canarygrass plant response rating (0 to 100 scale) ([9]; 13 to 15 days): 45
- Plant response rating, Canarygrass [9, 18]: 35
- Plant response rating, Canarygrass [9, 19]: 80
- Plant response rating, Canarygrass [9, 20]: 85
- Windgrass plant response rating (0 to 100 scale) ([10]; 13 to 15 days): 70
- Plant response rating, Windgrass [10, 18]: 50
- Plant response rating, Windgrass [10, 19]: 85
- Plant response rating, Windgrass [10, 20]: 98
- Chickweed plant response rating (0 to 100 scale) ([11]; 13 to 15 days): 65
- Plant response rating, Chickweed [11, 18]: 10
- Plant response rating, Chickweed [11, 19]: 90
- Plant response rating, Chickweed [11, 20]: 95
- Barley plant response rating (0 to 100 scale) ([12]; 13 to 15 days): 45
- Plant response rating, Barley [12, 18]: 10
- Plant response rating, Barley [12, 19]: 85
- Plant response rating, Barley [12, 20]: 90
